Like-named read-outs stand apart in the source and are kept apart here.
Experiments:
BRD4 (BD1, 2) = BRD4 (BD1, 2) (Homo sapiens, UniProt O60885); assay: BROMOscan competitive ligand binding assay, BRD4 (BD1, 2)
[1] = biological target: T1, full-length recombinant human BRD4 (Homo sapiens, UniProt O60885); assay: AlphaScreen assay, full-length BRD4 with acetylated histone H4 peptide; format: binding; settings: full-length BRD4, acetylated H4 peptide (1-21) ligand
T1 construct: His-tag (N); purchased Reaction Biology RD-21-153; host or cells: Sf9 insect cells
Experimental: AlphaScreen® assay, an […], was conducted by following manufacturer's protocol (PerkinElmer, Waltham, MA) at Reaction Biology (Malvern, PA) utilizing full-length recombinant human BRD4 corresponding to amino acid position 2-1362 (NCBI Reference Sequence: NM_058243) expressed in Sf9 insect cells with an N-terminal His-tag (Reaction Biology Catalog No. RD-21-153), and histone H4 peptide (1-21) containing acetylated lysine residues at positions 5, 8, 12 and 16 as the ligand. […] H4 ligand peptide was then added and the mixture was incubated for another 30 minutes at room temperature. Streptavidin-coated donor beads and Ni acceptor beads were then added, and the mixture was incubated for additional 60 minutes. Fluorescent measurements (Ex/Em=680/520-620 nm) were taken and the data were fitted to the Hill equation with variable slopes to obtain IC50 values.

MV4-11 cells = assay: MV4-11 cytotoxicity assay (CellTiter-Glo); format: cell-based; settings: Homo sapiens, 72 hr incubation
Experimental: Cell lines: The MV4-11 cell line were obtained from American Type Culture Collection (ATCC, Manassas, VA, USA) and cultured in RPMI 1640 (Invitrogen 11879020) culture medium supplemented with 10% fetal bovine serum and 100 units/mL Penicillin, 100 μg/mL Streptomycin and maintained in a 37° C., 5% CO2/95% humidified air incubator.
Cytotoxicity Assay: MV4-11 cells were cultured as described above, and plated in 1536-well white solid tissue culture plates using a Multidrop Combi peristaltic dispenser (ThermoFisher, Waltham, MA) at a density of 500 cells/well in 5 μL of RPMI 1640 (Invitrogen 11879020) culture medium supplemented with 10% fetal bovine serum and 100 units/mL Penicillin, 100 μg/mL Streptomycin. A 1536-well pintool dispenser outfitted with 20 nL pins (Wako Automation, San Diego, CA) was used to transfer 23 nL of compound in DMSO to the 1536-well assay plates. After 72 hr incubation at 37° C., 2.5 μL of CellTiter-Glo (Promega) was dispensed into each well using a BioRAPTR FRD dispenser (Beckman Coulter, Brea, CA). Plates were incubated at room temperature for 10 minutes, transferred to a ViewLux microplate imager (Perkin Elmer, Waltham, MA) and the ATP-coupled luminescence was measured using a 1 second exposure.

[2] = system: acute myeloid leukemia cell line Kasumi-1; assay: Kasumi-1 cell viability assay (CellTiter-Blue); format: cell-based; settings: Homo sapiens, read-out: Kasumi-1 IC50
Experimental: Cell viability assay: Cell viability assay was conducted to obtain G150, the compound concentration resulting in 50% growth inhibition, using an acute myeloid leukemia cell line Kasumi-1 (ATCC® CRL-2724™) (ATCC, Manassas, VA). Briefly, cells were seeded on a 96-well flat-bottom cell culture plate at the density of 30,000 cells per well (MV-4-11) or 10,000 cells per well (Kasumi-1) in RPMI supplemented with 10% fetal bovine serum and L-glutamine plus penicillin and streptomycin. Cells were maintained at 37° C. with 5% CO2 for 24 hours then exposed to a given compound at either 11 or 21 concentrations ranging from 0 μM to 20 μM in a 150 μL volume in the presence of 0.2% dimethyl sulfoxide, the solvent used in serial dilution of the compound. The exposure was maintained for approximately 72 hours and the cell viability was measured using CellTiter-Blue® (Promega, Madison, WI) according to manufacturer's instruction. GI50 values were calculated using a four-parameter dose-response model in Graph Pad Prism (La Jolla, CA).

CBP = CBP (Homo sapiens, UniProt Q92793); assay: BROMOscan competitive ligand binding assay, CBP
P300 = biological target: T2, P300 (Homo sapiens, UniProt Q09472); assay: BROMOscan competitive ligand binding assay, P300
T2 sequence (Q09472 1049-1156 limits assumed): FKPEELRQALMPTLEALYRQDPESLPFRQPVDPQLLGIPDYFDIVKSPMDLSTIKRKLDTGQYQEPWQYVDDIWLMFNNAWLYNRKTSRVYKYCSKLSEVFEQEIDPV

BRD2 (BD1) = BRD2 (BD1) (Homo sapiens, UniProt P25440); assay: BROMOscan competitive ligand binding assay, BRD2 (BD1)
BRD2 (BD1, 2) = BRD2 (BD1, 2) (Homo sapiens, UniProt P25440); assay: BROMOscan competitive ligand binding assay, BRD2 (BD1, 2)
BRD2 (BD2) = BRD2 (BD2) (Homo sapiens, UniProt P25440); assay: BROMOscan competitive ligand binding assay, BRD2 (BD2)
BRD3 (BD1) = BRD3 (BD1) (Homo sapiens, UniProt Q15059); assay: BROMOscan competitive ligand binding assay, BRD3 (BD1)
BRD3 (BD1, 2) = BRD3 (BD1, 2) (Homo sapiens, UniProt Q15059); assay: BROMOscan competitive ligand binding assay, BRD3 (BD1, 2)
BRD3 (BD2) = BRD3 (BD2) (Homo sapiens, UniProt Q15059); assay: BROMOscan competitive ligand binding assay, BRD3 (BD2)
BRD4 (BD1) = BRD4 (BD1) (Homo sapiens, UniProt O60885); assay: BROMOscan competitive ligand binding assay, BRD4 (BD1)
BRD4 (BD2) = BRD4 (BD2) (Homo sapiens, UniProt O60885); assay: BROMOscan competitive ligand binding assay, BRD4 (BD2)
BRDT (BD1) = BRDT (BD1) (Homo sapiens, UniProt Q58F21); assay: BROMOscan competitive ligand binding assay, BRDT (BD1)
BRDT (BD1, 2) = BRDT (BD1, 2) (Homo sapiens, UniProt Q58F21); assay: BROMOscan competitive ligand binding assay, BRDT (BD1, 2)
BRDT (BD2) = BRDT (BD2) (Homo sapiens, UniProt Q58F21); assay: BROMOscan competitive ligand binding assay, BRDT (BD2)
[3] = Kasumi 1, approximately 72 hours exposure, CellTiter-Blue

Sequence of CBP (Q92793 1085-1192 limits assumed): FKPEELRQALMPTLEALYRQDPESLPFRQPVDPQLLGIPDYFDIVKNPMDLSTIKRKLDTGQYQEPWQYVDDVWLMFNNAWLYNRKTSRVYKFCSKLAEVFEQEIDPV
Sequence of BRD3 (BD1, 2) (Q15059 24-416 limits assumed): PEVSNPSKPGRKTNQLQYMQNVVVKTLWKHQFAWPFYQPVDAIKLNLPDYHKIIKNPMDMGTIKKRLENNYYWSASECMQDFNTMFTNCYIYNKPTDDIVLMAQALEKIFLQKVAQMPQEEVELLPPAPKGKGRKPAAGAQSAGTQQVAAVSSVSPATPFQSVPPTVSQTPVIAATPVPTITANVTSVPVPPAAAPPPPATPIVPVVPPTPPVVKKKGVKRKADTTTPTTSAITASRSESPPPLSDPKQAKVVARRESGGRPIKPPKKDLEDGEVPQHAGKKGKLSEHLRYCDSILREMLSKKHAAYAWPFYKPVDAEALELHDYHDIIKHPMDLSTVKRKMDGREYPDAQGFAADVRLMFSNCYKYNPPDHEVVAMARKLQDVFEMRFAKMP
Sequence of BRD3 (BD2) (Q15059 306-415 limits assumed): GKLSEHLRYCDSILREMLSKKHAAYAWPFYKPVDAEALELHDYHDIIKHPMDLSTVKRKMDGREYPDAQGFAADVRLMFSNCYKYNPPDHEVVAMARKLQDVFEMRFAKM
Sequence of BRD3 (BD1) (Q15059 34-140 limits assumed): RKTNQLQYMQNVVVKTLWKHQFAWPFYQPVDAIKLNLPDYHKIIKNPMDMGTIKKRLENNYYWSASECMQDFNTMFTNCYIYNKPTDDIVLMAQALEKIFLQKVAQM
Sequence of BRD2 (BD1, 2) (P25440 71-455 limits assumed): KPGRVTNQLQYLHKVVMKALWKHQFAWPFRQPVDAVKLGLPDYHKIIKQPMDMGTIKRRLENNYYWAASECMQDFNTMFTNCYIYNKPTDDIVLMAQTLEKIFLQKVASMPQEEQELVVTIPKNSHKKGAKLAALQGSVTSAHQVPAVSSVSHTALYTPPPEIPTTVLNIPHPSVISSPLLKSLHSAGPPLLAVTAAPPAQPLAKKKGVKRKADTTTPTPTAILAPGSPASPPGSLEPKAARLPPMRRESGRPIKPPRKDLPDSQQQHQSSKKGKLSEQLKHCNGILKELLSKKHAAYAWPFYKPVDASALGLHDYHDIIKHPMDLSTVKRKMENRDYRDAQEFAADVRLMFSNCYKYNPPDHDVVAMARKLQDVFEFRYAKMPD
Sequence of BRD2 (BD1) (P25440 74-180 limits assumed): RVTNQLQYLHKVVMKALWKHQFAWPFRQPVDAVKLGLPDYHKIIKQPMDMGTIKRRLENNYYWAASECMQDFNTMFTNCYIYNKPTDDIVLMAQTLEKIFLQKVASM
Sequence of BRD2 (BD2) (P25440 344-453 limits assumed): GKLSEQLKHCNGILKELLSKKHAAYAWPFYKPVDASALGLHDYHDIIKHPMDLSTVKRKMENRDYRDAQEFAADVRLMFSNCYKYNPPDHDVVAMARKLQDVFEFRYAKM

| SMILES | Kd (BRD4 (BD1, 2); tandem bromodomains) [nM] | IC50 [1] [nM] | IC50 (MV4-11 cells) [nM] | Kd (CBP) [nM] | Kd (P300) [nM] | other results |
| --- | --- | --- | --- | --- | --- | --- |
| Cn1cc(-c2ccc3nc(-c4cnn(CC(C)(C)O)c4)nc(N4CCOC[C@@H]4c4ccccc4)c3c2)c2cc[nH]c2c1=O [Cpd. 2, (S)-4-(2-(1-(2-hydroxy-2-methylpropyl)-1H-pyrazol-4-yl)-4-(3-phenylmorpholino)quinazolin-6-yl)-6-methyl-1,6-dihydro-7H-pyrrolo[2,3-c]pyridin-7-one] | < 100 | < 100 | < 100 | < 100 | < 100 | Kd (BRD4 (BD1, 2); Table 3): < 100 nM; IC50 [2, 3]: < 100 nM; Kd (BRD2 (BD1)): < 100 nM; Kd (BRD2 (BD1, 2)): < 100 nM; Kd (BRD2 (BD2)): < 100 nM; Kd (BRD3 (BD1)): < 100 nM; Kd (BRD3 (BD1, 2)): < 100 nM; Kd (BRD3 (BD2)): < 100 nM; Kd (BRD4 (BD1)): < 100 nM; Kd (BRD4 (BD2)): < 100 nM; Kd (BRDT (BD1)): < 100 nM; Kd (BRDT (BD1, 2)): < 100 nM; Kd (BRDT (BD2)): < 100 nM |
| Cn1cc(-c2ccc3nc(-c4cnn(CC(C)(C)O)c4)nc(N4CCOC[C@@H]4C4CCCCC4)c3c2)c2cc[nH]c2c1=O [Cpd. 14, (S)-4-(4-(3-cyclohexylmorpholino)-2-(1-(2-hydroxy-2-methylpropyl)-1H-pyrazol-4-yl)quinazolin-6-yl)-6-methyl-1,6-dihydro-7H-pyrrolo[2,3-c]pyridin-7-one] | – | – | – | < 100 | 100 to 500 | – |
| Cn1cc(-c2ccc3nc(N4CCO[C@H](CO)C4)nc(N4CCOC[C@@H]4c4ccc(F)cc4)c3c2)c2cc[nH]c2c1=O [Cpd. 15, 4-(4-((S)-3-(4-fluorophenyl)morpholino)-2-((S)-2-(hydroxymethyl)morpholino)quinazolin-6-yl)-6-methyl-1,6-dihydro-7H-pyrrolo[2,3-c]pyridin-7-one] | – | – | – | < 100 | < 100 | – |
| Cn1cc(-c2ccc3nc(-c4cnn(CC(C)(C)O)c4)nc(N4CCOC[C@@H]4c4ccc(F)cc4)c3c2)c2cc[nH]c2c1=O [Cpd. 5, (S)-4-(4-(3-(4-fluorophenyl)morpholino)-2-(1-(2-hydroxy-2-methylpropyl)-1H-pyrazol-4-yl)quinazolin-6-yl)-6-methyl-1,6-dihydro-7H-pyrrolo[2,3-c]pyridin-7-one] | < 100 | < 100 | 100 to 500 | < 100 | < 100 | IC50 [2, 3]: < 100 nM |
| Cn1cc(-c2ccc3nc(N4CCO[C@H](CO)C4)nc(N4CCOC[C@@H]4C4CCCCC4)c3c2)c2cc[nH]c2c1=O [Cpd. 13, 4-(4-((S)-3-cyclohexylmorpholino)-2-((S)-2-(hydroxymethyl)morpholino)quinazolin-6-yl)-6-methyl-1,6-dihydro-7H-pyrrolo[2,3-c]pyridin-7-one] | – | – | – | < 100 | < 100 | – |
| Cc1cc(-c2ccc3nc(N4CCO[C@H](CO)C4)nc(N4CCOC[C@@H]4c4ccccc4)c3c2)cn(C)c1=O [Cpd. 11, 5-(2-((S)-2-(hydroxymethyl)morpholino)-4-((S)-3-phenylmorpholino)quinazolin-6-yl)-1,3-dimethylpyridin-2(1H)-one] | – | – | – | < 100 | < 100 | – |
| Cc1cc(-c2ccc3nc(-c4cnn(CC(C)(C)O)c4)nc(N4CCOC[C@@H]4C4CCCCC4)c3c2)cn(C)c1=O [Cpd. 12, (S)-5-(4-(3-cyclohexylmorpholino)-2-(1-(2-hydroxy-2-methylpropyl)-1H-pyrazol-4-yl)quinazolin-6-yl)-1,3-dimethylpyridin-2(1H)-one] | – | – | – | 100 to 500 | 100 to 500 | – |
| Cn1cc(-c2ccc3nc(-c4cnn(CC(C)(C)O)c4)nc(N4CCOC[C@@H]4C4CC4)c3c2)c2cc[nH]c2c1=O [Cpd. 4, (S)-4-(4-(3-cyclopropylmorpholino)-2-(1-(2-hydroxy-2-methylpropyl)-1H-pyrazol-4-yl)quinazolin-6-yl)-6-methyl-1,6-dihydro-7H-pyrrolo[2,3-c]pyridin-7-one] | < 100 | < 100 | < 100 | < 100 | < 100 | – |
| Cc1cc(-c2ccc3nc(-c4cnn(CC(C)(C)O)c4)nc(N4CCOC[C@@H]4c4ccc(F)cc4)c3c2)cn(C)c1=O [Cpd. 6, (S)-5-(4-(3-(4-fluorophenyl)morpholino)-2-(1-(2-hydroxy-2-methylpropyl)-1H-pyrazol-4-yl)quinazolin-6-yl)-1,3-dimethylpyridin-2(1H)-one] | < 100 | < 100 | 100 to 500 | < 100 | < 100 | IC50 [2, 3]: < 100 nM |
| Cc1cc(-c2ccc3nc(N4CCO[C@H](CO)C4)nc(N4CCOC[C@@H]4C4CCCCC4)c3c2)cn(C)c1=O [Cpd. 10, 5-(4-((S)-3-cyclohexylmorpholino)-2-((S)-2-(hydroxymethyl)morpholino)quinazolin-6-yl)-1,3-dimethylpyridin-2(1H)-one] | – | – | – | 100 to 500 | 100 to 500 | – |
| Cc1cc(-c2ccc3nc(-c4cnn(CC(C)(C)O)c4)nc(N4CCOC[C@@H]4c4ccccc4)c3c2)cn(C)c1=O [Cpd. 1, (S)-5-(2-(1-(2-hydroxy-2-methylpropyl)-1H-pyrazol-4-yl)-4-(3-phenylmorpholino)quinazolin-6-yl)-1,3-dimethylpyridin-2(1H)-one] | < 100 | < 100 | 100 to 500 | < 100 | < 100 | Kd (BRD4 (BD1, 2); Table 3): < 100 nM; IC50 ([2]; Kasumi 1, 72 h): < 100 nM; Kd (BRD2 (BD1)): < 100 nM; Kd (BRD2 (BD1, 2)): < 100 nM; Kd (BRD2 (BD2)): < 100 nM; Kd (BRD3 (BD1)): < 100 nM; Kd (BRD3 (BD1, 2)): < 100 nM; Kd (BRD3 (BD2)): < 100 nM; Kd (BRD4 (BD1)): < 100 nM; Kd (BRD4 (BD2)): < 100 nM; Kd (BRDT (BD1)): < 100 nM; Kd (BRDT (BD1, 2)): < 100 nM; Kd (BRDT (BD2)): < 100 nM |
| Cc1cc(-c2ccc3nc(-c4cnn(CC(C)(C)O)c4)nc(N4CCOC[C@@H]4C4CC4)c3c2)cn(C)c1=O [Cpd. 3, (S)-5-(4-(3-cyclopropylmorpholino)-2-(1-(2-hydroxy-2-methylpropyl)-1H-pyrazol-4-yl)quinazolin-6-yl)-1,3-dimethylpyridin-2(1H)-one] | < 100 | 100 to 500 | 500 to 5000 | 100 to 500 | 100 to 500 | – |

From patent publication US12497395B2, “Small molecule bromodomain inhibitors and uses therof” (ConverGene, LLC, priority 2019, dated 2025)
